Measurements: patent US9180183B2, “Phospholipid drug analogs” (Telormedix SA, priority 2010, dated 2015)
“And” between values parts separate entries of the source, which are not always exact repeats. Equal values may be shown once.

Experiments:
[1] = Stability study of SC12 under storage conditions (HPLC); assay type: physicochemical
[2] = Heat stability of solid samples at 80° C. (HPLC); assay type: physicochemical; settings: solid sample
Method: Solid samples of each compound were maintained at 80° C. and analyzed by HPLC.

[3] = Plasma stability in human plasma (second experiment); settings: up to 120 min
Method: Second experiment: Test compounds (5 mM in DMSO) were diluted at the final concentration of 250 μM with ACN-MeOH 1:1.
Human plasma (1.180 ml) was spiked with 20 μl of 250 μM solution of the compound (4.16 μM final concentration) and aliquots of 50 μl volume were taken at 0, 15, 30, 60, 120 min and 5 hrs, and immediately quenched with 200 μl of a solution of Verapamil 250 ng/ml (internal standard, I.S.) in ACN:MeOH 95:5. Samples were then centrifuged for 20 min at 3000 rpm at 10° C. and analyzed as reported below. […] The supernatant fractions were analyzed by LC/MS/MS. Zero-time incubations were used as 100% values.
Stability was calculated as percentage remaining of the area ratio compound/I.S. at each time point vs. area ratio compound/I.S. at time 0 min.

[4] = system: HLA-DR+/CD11c+/CD123- mDCs; experiment: FACS analysis of myeloid DC activation in whole blood; assay type: cell-based, human; settings: 24 hours; 0.1 and 0.5 uM; three donors
Method: The FACS analysis for donor 1 and donor 2 was made on another day than donor 3. The compound concentrations were as follows:
(§1) The FACS analysis was used to identify whether the test compounds could induce activation of B cells, and two different subsets of dendritic cells, namely the myeloid CD11c+/CD123− DCs and the plasmacytoid CD11c−/CD123+ DCs. The following markers were studied to identify the activation status of the different subsets:
(§2) The FACS staining was performed according to the manufacturer's instructions. Lysis of red blood cells was performed before FACS staining in order to minimize auto-florescence. To include as many B cells and DCs in the study as possible the FACS analyses were performed on 500,000 cells in total for each staining. A P1 gate was set only to include relevant cells on FSC vs. SSC (see FIGS. 12-15). The results of the individual analysis were present as Mean Fluorescence Intensity
The analysis of myeloid DCs was based on HLA-DR+/CD11c+/CD123−cells, thus all analyzed cells was included in the HLA-DR+ (P3) gate and CD11c+/CD123− (Q4) gate (see gates in FIGS. 13-15).

[5] = system: HLA-DR+/CD11c-/CD123+ pDCs; experiment: FACS analysis of plasmacytoid DC activation in whole blood; assay type: cell-based, human; settings: 24 hours; 0.1 and 0.5 uM; three donors
Method: A flow cytometric analysis was performed on whole blood from three donors after treatment with two compound concentrations for 24 h. The FACS analysis for donor 1 and donor 2 was made on another day than donor 3. The compound concentrations were as follows:
as §1, §2
The analysis of pDCs was based on HLA-DR+/CD11c−/CD123+ cells, thus all analyzed cells were included in the HLA-DR+ (P3) gate and CD11c−/CD123+ (Q1) gate. (FIGS. 13-15).

[6] = system: 73 primary molecular targets (human recombinant receptor types and subtypes or membrane fraction from rodent tissue homogenates); experiment: Radioligand binding assay among 73 primary molecular targets; settings: SC12 at 30 microM
CYP2C9 = CYP2C9 (Homo sapiens (Human), UniProt P11712); experiment: Fluorescent High Throughput P450 assay CYP2C9; assay type: in vitro ADME
CYP2C9, sequence (P11712 whole entry, looked up): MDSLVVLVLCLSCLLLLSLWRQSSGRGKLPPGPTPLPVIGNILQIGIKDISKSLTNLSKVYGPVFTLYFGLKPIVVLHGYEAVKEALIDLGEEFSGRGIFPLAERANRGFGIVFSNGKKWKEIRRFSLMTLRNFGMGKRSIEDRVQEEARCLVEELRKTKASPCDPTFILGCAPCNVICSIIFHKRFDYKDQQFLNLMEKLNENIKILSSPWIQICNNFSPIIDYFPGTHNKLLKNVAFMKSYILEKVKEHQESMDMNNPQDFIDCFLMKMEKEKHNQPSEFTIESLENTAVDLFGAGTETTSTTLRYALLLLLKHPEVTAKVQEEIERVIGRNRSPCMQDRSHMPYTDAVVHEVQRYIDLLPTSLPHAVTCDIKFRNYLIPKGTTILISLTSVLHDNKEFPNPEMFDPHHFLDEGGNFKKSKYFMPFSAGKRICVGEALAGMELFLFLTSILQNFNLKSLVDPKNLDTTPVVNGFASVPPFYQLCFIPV
Method: (§3) Inhibition of the P450 isoforms was measured in specific assays using specific substrates that become fluorescent upon CYP metabolism. Compounds, dissolved in ACN (acetonitrile) (CYP2E1, CYP2C8, CYP2B6, CYP3A5) or DMSO (all remaining isoforms), were tested in duplicate (n=2) in concentration-response curves (eight concentrations) in a 96-well plate containing incubation/NADPH regenerating buffer. Specific isoenzymes and substrates were added and incubated at 37° C. Reactions were terminated at different times, depending on the assays, and plates read on a Fluoroskan Ascent at the appropriate emission/excitation wavelengths. Concentration-response curves performed in duplicate for known inhibitors for each isoenzyme were tested in every assay as positive control.

CYP2E1 = CYP2E1 (Homo sapiens (Human), UniProt P05181); experiment: Fluorescent High Throughput P450 assay CYP2E1; assay type: in vitro ADME
CYP2E1, sequence (P05181 whole entry, looked up): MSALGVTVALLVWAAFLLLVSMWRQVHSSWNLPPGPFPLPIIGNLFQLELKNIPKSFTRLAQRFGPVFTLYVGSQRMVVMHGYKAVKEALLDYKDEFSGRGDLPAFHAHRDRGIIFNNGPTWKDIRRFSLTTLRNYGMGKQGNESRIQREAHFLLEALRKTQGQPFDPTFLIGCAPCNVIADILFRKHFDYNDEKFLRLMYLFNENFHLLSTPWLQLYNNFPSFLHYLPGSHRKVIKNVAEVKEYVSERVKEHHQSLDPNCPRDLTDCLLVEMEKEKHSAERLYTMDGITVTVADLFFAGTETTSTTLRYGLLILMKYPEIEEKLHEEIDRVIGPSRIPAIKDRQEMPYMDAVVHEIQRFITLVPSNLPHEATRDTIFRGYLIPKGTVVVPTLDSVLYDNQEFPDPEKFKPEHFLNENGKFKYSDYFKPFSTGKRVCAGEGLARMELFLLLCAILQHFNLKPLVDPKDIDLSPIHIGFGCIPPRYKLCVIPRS
Method: as §3

[7] = system: recombinant protein antigens from Plasmodium falciparum and Mycobacterium ulcerans; experiment: Pilot immunization study with adjuvanted protein antigens in mice; assay type: in vivo
Method: A pilot immunization study was conducted using Compound A and SC12 adjuvanted protein antigens. The immunization experiments were performed with two recombinant proteins expressed in E. coli. One antigen was derived from the malaria parasite Plasmodium falciparum and the other one from Mycobacterium ulcerans, which cause the ulcerative skin disease Buruli ulcer.

[8] = Serum exposure after intravesical chronic treatment in mouse; settings: intravesical, LLOQ 0.5 ng/ml
Method: Serum samples were taken at time points: day 0, 2 hours, day 1, 24 hours, and day 6, 2 hours.
Samples were evaporated and re-suspended in 70 microliters of acetonitrile/methanol 1:1.

[9] = system: AY-27 rat bladder cancer cell-line; settings: in vivo
[10] = solid, RT and light, t = 20 days
[11] = solid, external T and light, t = 20 days
[12] = solution in CHCl3, RT and light, t = 0
[13] = solution in CHCl3, RT and light, t = 20 days

Question: What does the source list for `CCCCCCCCCCCC(=O)OCC(COP(=O)(O)OCCNC(=O)c1ccc(Cn2c(=O)[nH]c3c(N)nc(OCCOC)nc32)cc1)OC(=O)CCCCCCCCCCC` (stereo not drawn) [SC12]?
Answer: HPLC % at RRT = 1 (main peak) [1, 10]: RRT = 1: 87.8%; HPLC % of impurity at RRT = 0.88 [1, 10]: RRT = 0.88: 6.2%; HPLC % of impurity at RRT = 1.21 [1, 10]: RRT = 1.21: 4.8%; HPLC % at RRT = 1 (main peak) [1, 11]: RRT = 1: 84.0%; HPLC % of impurity at RRT = 0.88 [1, 11]: RRT = 0.88: 6.6%; HPLC % of impurity at RRT = 1.21 [1, 11]: RRT = 1.21: 7.1%; HPLC % at RRT = 1 (main peak) [1, 12]: RRT = 1: 90.3%; HPLC % of impurity at RRT = 0.46 [1, 12]: RRT = 0.46: 5.7%; HPLC % of impurity at RRT = 1.21 [1, 12]: RRT = 1.21: 0.9%; HPLC % at RRT = 1 (main peak) [1, 13]: RRT = 1: 88.0%; HPLC % of impurity at RRT = 0.88 [1, 13]: RRT = 0.88: 6.2%; HPLC % of impurity at RRT = 1.21 [1, 13]: RRT = 1.21: 5.0%; HPLC purity ([2]; After 2 hrs at 80° C.): 90% HPLC; HPLC purity ([2]; After 22 hrs at 80° C.): 88% HPLC; HPLC purity ([2]; t = 0): 90% HPLC; stability classification [3]: stable; CCR7 expression in mDCs (MFI, in words) [4]: less potent stimulator of CCR7 expression; CD80 expression in mDCs (MFI, in words) [4]: induced a noteworthy CD80 expression in all three donors; CD86 expression in mDCs (MFI, in words) [4]: induces a weak CD86 expression in donor 2 and 3, but not in donor 1; CD80 expression in pDCs (MFI, in words) [5]: induces a slightly higher CD80 expression than compound A; CD86 expression in pDCs (MFI, in words) [5]: tendency to induce higher CD86 expression than compound A; binding to receptors associated with pain-related syndromes (e.g. adenosine and sodium channel) [6]: did not bind; inhibition of CYP2C9 (in words) (CYP2C9): weak inhibition; inhibition of CYP2E1 (in words) (CYP2E1): moderate inhibition; local side effects ([7]; three s.c. immunizations with 10 nMol adjuvant): No local side effects; IgG responses against the target antigens ([7]; three s.c. immunizations, 20 micrograms antigen mixed with 10 nMol adjuvant, after the third immunization): developed IgG responses; SC12 levels in serum, Mean ± S.D. ([8]; Day 0, 2 hours): 0.5 ± 0.5 ng/mL; SC12 levels in serum, individual mice ([8]; Day 0, 2 hours): <LLOQ (2×) and 1.0 ng/ml and 0.5 ng/ml; SC12 levels in serum, Mean ± S.D. ([8]; Day 1, 24 hours): <LLOQ; SC12 levels in serum, individual mice ([8]; Day 1, 24 hours): <LLOQ; SC12 levels in serum, Mean ± S.D. ([8]; Day 6, 2 hours): <LLOQ; SC12 levels in serum, individual mice ([8]; Day 6, 2 hours): <LLOQ; signs of toxicity (in words) [9]: No signs of toxicity
